In patent publication US5527882A, “Polypeptide having an amino acid replaced with N-benzylglycine” (The Regents of the University of California, priority 1994, dated 1996):
Square brackets hold non-standard residues; d marks the D form. Ends that are not written are not given here. Peptide text beside a SMILES is read from it.

Tests used:
[1] = tested on: rat blood pressure; test: Rat blood pressure assay; format: in vivo; conditions: bradykinin = 100%
Source text: | See Vavrek supra for assay methods.

[2] = tested on: rat uterus; test: Smooth muscle bioassay: rat uterus contraction; format: cell-based; conditions: bradykinin = 100%
Source text: (§1) See Vavrek supra for assay methods.
Rat Uterus, rat uterus contraction;

[3] = tested on: guinea pig ileum; test: Smooth muscle bioassay: guinea pig ileum contraction; format: cell-based; conditions: bradykinin = 100%
Source text: as §1
GP Ileum, guinea pig ileum contraction;

[4] = tested on: pulmonary circulation; conditions: rat, in vivo
Source text: as §1
Bradykinin and (NBzlGly^7)-bradykinin were virtually identical with respect to destruction (98-99%) on passage through the pulmonary circulation.

Row | Molecule | Rat Blood Pressure IA, potency relative to bradykinin ([1]; intraaortic administration) [%] | Rat Blood Pressure IV, potency relative to bradykinin ([1]; intravenous administration) [%] | Smooth Muscle Rat Uterus (rat uterus contraction), potency relative to bradykinin [2] [%] | Smooth Muscle GP Ileum (guinea pig ileum contraction), potency relative to bradykinin [3] [%] | Destruction [4] [%]
1 | RPPGFSPFR [Bradykinin] | 100 | 100 | 100 | 100 | –
2 | NC(N)=NCCC[C@H](NC(=O)[C@H](Cc1ccccc1)NC(=O)[C@@H](Cc1ccccc1)NC(=O)[C@H](CO)NC(=O)[C@H](Cc1ccccc1)NC(=O)CNC(=O)[C@@H]1CCCN1C(=O)[C@@H]1CCCN1C(=O)[C@@H](N)CCCN=C(N)N)C(=O)O [[D-Phe^7]-Bradykinin, (D-Phe^7)-bradykinin] (H-RPPGFS[dF]FR-OH) | – | – | – | – | 36
